Experimental findings from patent US9751876B2, “Bicyclic heterocycle derivatives for the treatment of pulmonary arterial hypertension” (Novartis AG, priority 2011, dated 2017) are described below.

Structures are written as SMILES. Structures can show the parent of a compound that is named as a salt.

The test system of the assay is PDGFR. As to the kind of experiment: Rat A10 cell proliferation assay. The assay is classed as cell-based. The conditions noted are these: Rat A10 cells, 1% FBS, 10 ng/mL recombinant rat PDGF-BB, 68 hours with compound, CellTiter-Glo luminescence. The method, then: Compounds of Formula (I), (II) or (III) provided herein were assayed to measure their capacity to inhibit PDGFR kinases using the appropriate assay described below: PDGFR inhibition was evaluated using the Rat A10 cell proliferation.
Rat A10 Cell Proliferation Assay
Rat A10 cells (ATCC) were resuspended in DMEM supplemented with 1% FBS and 10 ng/mL recombinant rat PDGF-BB at 20,000 cells/mL. The cells were aliquoted into 384 well plates at 50 μL/well and incubated for 4 hours at 37° C. […] The plates were returned to the incubator for a further 68 hours. 25 μL of CellTiter-Glo (Promega) was added to each well and the plates were incubated on the bench for 15 minutes. Luminescence was then read using a CLIPR CCD camera (Molecular Devices).
Data were analysed using non-linear regression fitted to sigmoidal (variable slope) curves using a four parameter logistic equation to generate IC50 values for each compound.

The IC50 is the concentration needed to halve the response being measured.

For the compound `CN1CCN(c2ccccc2CNC(=O)c2ccc(F)c(NC(=O)c3cnc4cc(-c5ccc(C(=O)NCCO)c(F)c5)ccn34)c2)CC1` [Example 1.2, 7-(3-Fluoro-4-(2-hydroxyethylcarbamoyl)phenyl)-N-(2-fluoro-5-(2-(4-methylpiperazin-1-yl)benzylcarbamoyl)phenyl)imidazo[1,2-a]pyridine-3-carboxamide], the IC50 was 40 nM. For the compound `CN(C)CCCOc1ccc(-c2ccn3c(C(=O)Nc4cc(C(=O)NCc5ccc(F)c(F)c5)ccc4F)cnc3c2)cn1` [Example 1.9, N-(5-(3,4-difluorobenzylcarbamoyl)-2-fluorophenyl)-7-(6-(3-(dimethylamino)propoxy)pyridine-3-yl)imidazo[1,2-a]pyridine-3-carboxamide], the IC50 was 11 nM. With `C[C@@H]1CCC[C@H](C)N1CCNC(=O)c1ccc(F)c(NC(=O)c2cnc3cc(-c4cccnc4)ccn23)c1` [Example 1.16, 1-(2-(4-fluoro-3-(7-(pyridine-3-yl)imidazo[1,2-a]pyridine-3-carboxamido)benzamido)ethyl)-2,6-cis-dimethylpiperidinium chloride] the figure was 27 nM; with `Cc1ncc(C(=O)NCc2ccccc2N2CCN(C)CC2)cc1NC(=O)c1cnc2cc(-c3ccnn3C)ccn12` [Example 1.19, 1-methyl-4-(2-((6-methyl-5-(7-(1-methyl-1H-pyrazol-5-yl)imidazo[1,2-a]pyridine-3-carboxamido)nicotinamido)methyl)phenyl)piperazin-1-ium chloride], 74 nM. Then `C[C@@H]1CCC[C@H](C)N1CCNC(=O)c1ccc(F)c(NC(=O)c2cnc3cc(-c4cnn(C)c4)ccn23)c1` [Example 1.20, 7-(1-Methyl-1H-pyrazol-4-yl)-imidazo[1,2-a]pyridine-3-carboxylic acid {5-[2-(2,6-cis-dimethyl-piperidin-1-yl)-ethylcarbamoyl]-2-fluoro-phenyl}-amide hydrochloride], with 13 nM. Then `CN(C)CCCOc1ccc(-c2ccn3c(C(=O)Nc4cc(C(=O)NCCOC(C)(C)C)ccc4F)cnc3c2)cn1` [Example 2.1, N-(5-(2-tert-Butoxyethylcarbamoyl)-2-fluorophenyl)-7-(6-(3-(dimethylamino)propoxy)pyridin-3-yl)imidazo[1,2-a]pyridine-3-carboxamide], with 3 nM; and `COCCN(C)Cc1cncc(-c2ccn3c(C(=O)Nc4cc(C(=O)NC[C@H]5CCC(C)(C)O5)ccc4F)cnc3c2)c1` [Example 2.6, (R)-N-(5-(((5,5-dimethyltetrahydrofuran-2-yl)methyl)carbamoyl)-2-fluorophenyl)-7-(5-(((2-methoxyethyl)(methyl)amino)methyl)pyridin-3-yl)imidazo[1,2-a]pyridine-3-carboxamide], with 16 nM; and `O=C(NCc1ccc(F)c(F)c1)c1ccc(F)c(NC(=O)c2cnc3cc(-c4ccc(OCCN5CCCC5)nc4)ccn23)c1` [Example 3.1, N-(5-(3,4-Difluorobenzylcarbamoyl)-2-fluorophenyl)-7-(6-(2-(pyrrolidin-1-yl)ethoxy)pyridin-3-yl)imidazo[1,2-a]pyridine-3-carboxamide hydrochloride], with 13 nM. For `CC(C)(C)OCCNC(=O)c1ccc(F)c(NC(=O)c2cnc3cc(-c4ccc(OCCN5CCCC5)nc4)ccn23)c1` [Example 3.2, N-(5-((2-(tert-Butoxy)ethyl)carbamoyl)-2-fluorophenyl)-7-(6-(2-(pyrrolidin-1-yl)ethoxy)pyridin-3-yl)imidazo[1,2-a]pyridine-3-carboxamide], the IC50 stood at 15 nM. As to `CN1CCC(Oc2ccc(-c3ccn4c(C(=O)Nc5cc(C(=O)NCC6CCC(C)(C)O6)ccc5F)cnc4c3)cn2)CC1` (stereo not drawn) [Example 3.3, N-(5-(((5,5-dimethyltetrahydrofuran-2-yl)methyl)carbamoyl)-2-fluorophenyl)-7-(6-((1-methylpiperidin-4-yl)oxy)pyridin-3-yl)imidazo[1,2-a]pyridine-3-carboxamide], the IC50 was found to be 10 nM. Then `Cc1ccc(C(=O)NCc2ccccc2N2CCN(C)CC2)cc1NC(=O)c1cnn2cc(-c3ccnn3C)ccc12` [Example 4.1, 6-(1-Methyl-1H-pyrazol-5-yl)-N-(2-methyl-5-(2-(4-methylpiperazin-1-yl)benzylcarbamoyl)phenyl)pyrazolo[1,5-a]pyridine-3-carboxamide hydrochloride], with 12 nM; and `CC(C)(O)CCc1ccn2c(C(=O)Nc3cc(C(=O)NCc4ccc(F)c(F)c4)ccc3F)cnc2c1` [Example 6.1, N-(5-(3,4-Difluorobenzylcarbamoyl)-2-fluorophenyl)-7-(3-hydroxy-3-methylbutyl)imidazo[1,2-a]pyridine-3-carboxamide], with 41 nM; and `CC(C)(CO)NC(=O)c1ccc(-c2ccn3c(C(=O)Nc4cc(C(=O)NCCN5CCCC5(C)C)ccc4F)cnc3c2)cc1F` [Example 7.5, N-(5-(2-(2,2-Dimethylpyrrolidin-1-yl)ethylcarbamoyl)-2-fluorophenyl)-7-(3-fluoro-4-(1-hydroxy-2-methylpropan-2-ylcarbamoyl)phenyl)imidazo[1,2-a]pyridine-3-carboxamide], with 8 nM. Then `Cc1ncc(C(=O)NCCN2CCCC2(C)C)cc1NC(=O)c1cnn2cc(-c3ccc(C(=O)NC(C)(C)CO)c(F)c3)ccc12` [Example 7.6, N-(5-(2-(2,2-Dimethylpyrrolidin-1-yl)ethylcarbamoyl)-2-methylpyridin-3-yl)-6-(3-fluoro-4-(1-hydroxy-2-methylpropan-2-ylcarbamoyl)phenyl)pyrazolo[1,5-a]pyridine-3-carboxamide], with 182 nM; and `O=C(NCc1ccc(F)c(F)c1)c1ccc(F)c(NC(=O)c2cnc3cc(-c4ccc(C(=O)NCCCN5CCOCC5)c(F)c4)ccn23)c1` [Example 8.1, N-(5-(3,4-Difluorobenzylcarbamoyl)-2-fluorophenyl)-7-(3-fluoro-4-(3-morpholinopropylcarbamoyl)phenyl)imidazo[1,2-a]pyridine-3-carboxamide hydrochloride], with 4 nM; and `C[C@@H]1CCC[C@H](C)N1CCNC(=O)c1ccc(F)c(NC(=O)c2cnc3cc(-c4ccc(C(=O)NC(C)(C)CO)c(F)c4)ccn23)c1` [Example 8.2, N-(5-(2-(2,6-cis-Dimethylpiperidin-1-yl)ethylcarbamoyl)-2-fluorophenyl)-7-(3-fluoro-4-(1-hydroxy-2-methylpropan-2-ylcarbamoyl)phenyl)imidazo[1,2-a]pyridine-3-carboxamide], with 8 nM. Then `CN1CCN(c2ccccc2CNC(=O)c2ccc(F)c(NC(=O)c3cnc4cc(-c5cc(F)cc(C(=O)NCCO)c5)ccn34)c2)CC1` [Example 8.4, N-(2-Fluoro-5-(2-(4-methylpiperazin-1-yl)benzylcarbamoyl)phenyl)-7-(3-fluoro-5-(2-hydroxyethylcarbamoyl)phenyl)imidazo[1,2-a]pyridine-3-carboxamide], with 112 nM; and `CCCC1CCN(CCNC(=O)c2ccc(F)c(NC(=O)c3cnc4cc(-c5cnn(C)c5)ccn34)c2)C1` (stereo not drawn) [Example 9.2, N-(2-Fluoro-5-((2-(3-propylpyrrolidin-1-yl)ethyl)carbamoyl)phenyl)-7-(1-methyl-1H-pyrazol-4-yl)imidazo[1,2-a]pyridine-3-carboxamide], with 11 nM; and `CC1CC(C)CN(CCNC(=O)c2ccc(F)c(NC(=O)c3cnc4cc(-c5cnn(C)c5)ccn34)c2)C1` (stereo not drawn) [Example 9.4, N-(5-((2-(3,5-Dimethylpiperidin-1-yl)ethyl)carbamoyl)-2-fluorophenyl)-7-(1-methyl-1H-pyrazol-4-yl)imidazo[1,2-a]pyridine-3-carboxamide], with 128 nM. For the compound `Cc1ncc(C(=O)NCCN2CCCCC2(C)C)cc1NC(=O)c1cnn2cc(-c3cnn(C)c3)ccc12` [Example 9.13, N-(5-((2-(2,2-Dimethylpiperidin-1-yl)ethyl)carbamoyl)-2-methylpyridin-3-yl)-6-(1-methyl-1H-pyrazol-4-yl)pyrazolo[1,5-a]pyridine-3-carboxamide], the IC50 stood at 7 nM. With `CC[C@@H]1CN(CCNC(=O)c2ccc(F)c(NC(=O)c3cnc4cc(-c5cnn(C)c5)ccn34)c2)[C@H]1CC` [Example 9.15, N-(5-((2-((2S,3R)-2,3-diethylazetidin-1-yl)ethyl)carbamoyl)-2-fluorophenyl)-7-(1-methyl-1H-pyrazol-4-yl)imidazo[1,2-a]pyridine-3-carboxamide] the figure was 2 nM.
